Columns and labels:
SW-620 = experiment: cells; conditions: Homo sapiens, SW-620, 96 h
[1] = biological target: T1, Dual specificity tyrosine-phosphorylation-regulated kinase 1A (Homo sapiens, UniProt Q13627); experiment: Inhibition of DYRK1A (unknown origin)
[2] = biological target: T1, Dual specificity tyrosine-phosphorylation-regulated kinase 1A; experiment: Inhibition of DYRK1A (unknown origin) at 10 uM relative to control
[3] = biological target: T2, Dual specificity tyrosine-phosphorylation-regulated kinase 1A (Rattus norvegicus, UniProt Q63470); experiment: Inhibition of rat recombinant GST-fused DYRK1A expressed in Escherichia coli in presence of [gamma-33P]ATP after 30 mins by scintillation counting analysis
[4] = biological target: T1, Dual specificity tyrosine-phosphorylation-regulated kinase 1A; experiment: Inhibition of DYRK1A (unknown origin) by cell-based assay
[5] = biological target: T3, Dual specificity tyrosine-phosphorylation-regulated kinase 1B (Homo sapiens, UniProt Q9Y463); experiment: Inhibition of DYRK1B (unknown origin)
[6] = biological target: T1, Dual specificity tyrosine-phosphorylation-regulated kinase 1A; experiment: Inhibition of GST-tagged DYRK1A (unknown origin) expressed in Escherichia coli DH5alpha at 1 uM using RRRFRPASPLRGPPK as substrate after 30 mins by kinase-glo luminescence assay relative to control
[7] = biological target: T1, Dual specificity tyrosine-phosphorylation-regulated kinase 1A; experiment: Inhibition of GST-tagged DYRK1A (unknown origin) expressed in Escherichia coli DH5alpha using RRRFRPASPLRGPPK as substrate after 30 mins by kinase-glo luminescence assay
[8] = biological target: Cyclin-dependent kinase 9 (Homo sapiens, UniProt P50750); experiment: Inhibition of human full-length N-terminal GST-fused CDK9 (1 to 372 residues) expressed in baculovirus expression system using MBP as substrate after 100 mins by TR-FRET assay
[9] = biological target: T1, Dual specificity tyrosine-phosphorylation-regulated kinase 1A; experiment: Inhibition of human recombinant full length GST-tagged DYRK1A expressed in baculovirus expression system assessed as decrease in tau phosphorylation at S396 preincubated for 10 mins followed by tau addition by Western blot analysis
[10] = biological target: T4, MAP kinase-activated protein kinase 5 (Homo sapiens, UniProt Q8IW41); experiment: Inhibition of PRAK (unknown origin)
T4 sequence (Q8IW41 whole entry): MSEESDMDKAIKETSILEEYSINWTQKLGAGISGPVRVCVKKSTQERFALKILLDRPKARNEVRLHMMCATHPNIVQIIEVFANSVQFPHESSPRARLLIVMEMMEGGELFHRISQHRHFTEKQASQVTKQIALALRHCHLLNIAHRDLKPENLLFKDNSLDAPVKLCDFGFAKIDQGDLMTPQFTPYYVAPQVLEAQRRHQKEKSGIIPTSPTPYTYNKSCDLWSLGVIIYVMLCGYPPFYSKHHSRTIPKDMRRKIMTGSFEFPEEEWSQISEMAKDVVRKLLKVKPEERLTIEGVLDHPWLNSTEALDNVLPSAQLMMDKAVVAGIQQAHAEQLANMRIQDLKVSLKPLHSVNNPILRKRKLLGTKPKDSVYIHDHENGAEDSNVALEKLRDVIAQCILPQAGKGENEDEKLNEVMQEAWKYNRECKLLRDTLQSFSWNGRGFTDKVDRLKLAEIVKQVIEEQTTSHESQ

[11] = biological target: T5, Amine oxidase [flavin-containing] A (Homo sapiens, UniProt P21397); experiment: Inhibition of human recombinant MAO-A after 1 hr by MAO-Glo assay
T5 sequence (P21397 whole entry): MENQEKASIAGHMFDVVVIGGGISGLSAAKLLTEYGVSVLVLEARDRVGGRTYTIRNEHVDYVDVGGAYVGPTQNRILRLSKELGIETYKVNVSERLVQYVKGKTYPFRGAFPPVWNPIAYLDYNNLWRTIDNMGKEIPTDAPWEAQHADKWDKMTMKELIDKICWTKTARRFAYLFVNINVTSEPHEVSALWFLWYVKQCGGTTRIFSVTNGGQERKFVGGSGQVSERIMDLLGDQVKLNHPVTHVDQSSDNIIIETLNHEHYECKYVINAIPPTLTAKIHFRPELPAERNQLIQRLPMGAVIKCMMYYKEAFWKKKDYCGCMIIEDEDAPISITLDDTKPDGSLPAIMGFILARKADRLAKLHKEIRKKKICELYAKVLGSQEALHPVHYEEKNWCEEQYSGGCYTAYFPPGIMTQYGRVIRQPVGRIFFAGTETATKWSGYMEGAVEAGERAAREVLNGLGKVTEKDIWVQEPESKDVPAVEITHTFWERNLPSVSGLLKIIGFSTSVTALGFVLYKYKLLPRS

Casein kinase 2 = Casein kinase 2 (Rattus norvegicus, UniProt P19139); experiment: Inhibition of rat liver CK2 using RRRADDSDDDDD as substrate after 10 mins in presence of [gamma-33P]ATP
[12] = Inhibition of CLK (unknown origin); parameters: species or system Homo sapiens
[13] = biological target: Glycogen synthase kinase-3 (Homo sapiens, UniProt P49840+P49841); experiment: Inhibition of GSK-3 (unknown origin); type: protein assay
[14] = biological target: T3, Dual specificity tyrosine-phosphorylation-regulated kinase 1B; experiment: Inhibition of human recombinant full length N-terminal GST-tagged DYRK1B expressed in baculovirus expression system using DYRKtide-F as substrate after 1 hr by electrophoretic analysis
[15] = biological target: T6, Dual specificity tyrosine-phosphorylation-regulated kinase 2 (Homo sapiens, UniProt Q92630); experiment: Inhibition of DYRK2 (unknown origin)
T6 sequence (Q92630 whole entry): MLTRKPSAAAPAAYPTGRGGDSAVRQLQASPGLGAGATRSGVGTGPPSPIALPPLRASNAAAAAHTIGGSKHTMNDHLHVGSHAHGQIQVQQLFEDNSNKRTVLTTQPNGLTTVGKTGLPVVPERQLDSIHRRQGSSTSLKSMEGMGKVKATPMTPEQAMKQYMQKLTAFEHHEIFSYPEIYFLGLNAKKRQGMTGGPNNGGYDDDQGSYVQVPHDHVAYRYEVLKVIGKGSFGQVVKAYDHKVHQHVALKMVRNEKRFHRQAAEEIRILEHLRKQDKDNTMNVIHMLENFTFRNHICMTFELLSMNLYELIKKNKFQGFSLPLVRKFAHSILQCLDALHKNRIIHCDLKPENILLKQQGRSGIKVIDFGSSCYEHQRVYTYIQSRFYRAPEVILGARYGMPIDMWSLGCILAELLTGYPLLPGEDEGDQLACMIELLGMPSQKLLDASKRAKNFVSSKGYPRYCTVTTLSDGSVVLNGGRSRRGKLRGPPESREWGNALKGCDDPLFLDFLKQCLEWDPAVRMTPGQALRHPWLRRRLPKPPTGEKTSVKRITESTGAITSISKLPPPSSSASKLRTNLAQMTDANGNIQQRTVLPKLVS

[16] = biological target: Dual specificity protein kinase CLK2 (Homo sapiens, UniProt P49760); experiment: Inhibition of CLK2 (unknown origin)
[17] = biological target: Dual specificity protein kinase CLK1 (Homo sapiens, UniProt P49759); experiment: Inhibition of CLK1 (unknown origin)
[18] = biological target: Aurora kinase B (Homo sapiens) (UniProt Q96GD4); experiment: Inhibition of aurora B (unknown origin) at 50 uM
[19] = biological target: T7, MAP kinase-activated protein kinase 5 (Homo sapiens) (UniProt Q8IW41); experiment: Inhibition of PRAK (unknown origin) at 50 uM
T7 sequence (whole entry): T4 sequence (Q8IW41 whole entry)

[20] = biological target: T1, Dual specificity tyrosine-phosphorylation-regulated kinase 1A; experiment: Inhibition of DYRK1A (unknown origin) at 50 uM
[21] = biological target: T2, Dual specificity tyrosine-phosphorylation-regulated kinase 1A; experiment: Inhibition of rat DYRK1A using KKISGRLSPIMTEQ as substrate in presence of [gamma-33P]ATP after 30 mins by scintillation counting analysis

T3 sequence (Q9Y463 whole entry): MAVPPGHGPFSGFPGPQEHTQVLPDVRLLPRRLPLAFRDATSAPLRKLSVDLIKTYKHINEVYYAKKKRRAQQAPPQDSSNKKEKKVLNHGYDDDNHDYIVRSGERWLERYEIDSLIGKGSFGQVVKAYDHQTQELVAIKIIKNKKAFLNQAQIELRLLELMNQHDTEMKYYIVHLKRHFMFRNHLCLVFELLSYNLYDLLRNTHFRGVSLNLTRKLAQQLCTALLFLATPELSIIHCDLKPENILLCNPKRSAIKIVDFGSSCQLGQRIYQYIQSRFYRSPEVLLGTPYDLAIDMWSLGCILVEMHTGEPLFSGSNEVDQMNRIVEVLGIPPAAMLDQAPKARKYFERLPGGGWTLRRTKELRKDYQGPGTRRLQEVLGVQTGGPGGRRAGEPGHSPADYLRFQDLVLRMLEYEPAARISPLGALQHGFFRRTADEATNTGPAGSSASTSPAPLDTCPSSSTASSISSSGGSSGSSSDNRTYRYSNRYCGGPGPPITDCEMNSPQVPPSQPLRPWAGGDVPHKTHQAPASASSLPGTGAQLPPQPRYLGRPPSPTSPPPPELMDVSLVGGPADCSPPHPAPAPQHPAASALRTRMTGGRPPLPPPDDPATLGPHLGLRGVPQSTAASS
Casein kinase 2, sequence (P67874 whole entry): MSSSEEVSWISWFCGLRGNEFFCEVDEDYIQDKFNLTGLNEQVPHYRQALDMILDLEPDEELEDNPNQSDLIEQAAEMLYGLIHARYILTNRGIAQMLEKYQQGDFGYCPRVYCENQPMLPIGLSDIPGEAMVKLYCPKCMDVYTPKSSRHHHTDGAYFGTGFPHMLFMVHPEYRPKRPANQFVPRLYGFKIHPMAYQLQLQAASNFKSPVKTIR
Casein kinase 2, sequence (P19139 whole entry): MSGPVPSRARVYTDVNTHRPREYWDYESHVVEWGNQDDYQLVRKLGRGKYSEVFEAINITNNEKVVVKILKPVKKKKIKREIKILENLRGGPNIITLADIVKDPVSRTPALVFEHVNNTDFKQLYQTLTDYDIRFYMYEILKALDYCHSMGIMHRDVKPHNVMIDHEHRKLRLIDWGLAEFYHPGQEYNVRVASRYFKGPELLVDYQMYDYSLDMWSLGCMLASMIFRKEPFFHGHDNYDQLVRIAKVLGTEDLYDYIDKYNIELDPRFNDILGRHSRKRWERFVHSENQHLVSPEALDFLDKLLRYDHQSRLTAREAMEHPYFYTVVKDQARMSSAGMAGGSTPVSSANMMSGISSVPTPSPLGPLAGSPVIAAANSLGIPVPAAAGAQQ
Cyclin-dependent kinase 9, sequence (P50750 whole entry, the tested form may be a part): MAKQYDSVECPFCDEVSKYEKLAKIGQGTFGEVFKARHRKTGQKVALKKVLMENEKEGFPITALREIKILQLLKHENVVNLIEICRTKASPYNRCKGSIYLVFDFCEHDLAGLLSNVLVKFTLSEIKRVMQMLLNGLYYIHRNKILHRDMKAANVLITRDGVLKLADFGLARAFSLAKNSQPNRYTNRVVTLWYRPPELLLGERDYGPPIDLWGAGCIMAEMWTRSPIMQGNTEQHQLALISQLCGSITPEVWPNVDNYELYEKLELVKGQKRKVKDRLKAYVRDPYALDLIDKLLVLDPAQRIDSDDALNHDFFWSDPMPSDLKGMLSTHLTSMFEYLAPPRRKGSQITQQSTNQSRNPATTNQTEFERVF
Dual specificity protein kinase CLK2, sequence (P49760 whole entry): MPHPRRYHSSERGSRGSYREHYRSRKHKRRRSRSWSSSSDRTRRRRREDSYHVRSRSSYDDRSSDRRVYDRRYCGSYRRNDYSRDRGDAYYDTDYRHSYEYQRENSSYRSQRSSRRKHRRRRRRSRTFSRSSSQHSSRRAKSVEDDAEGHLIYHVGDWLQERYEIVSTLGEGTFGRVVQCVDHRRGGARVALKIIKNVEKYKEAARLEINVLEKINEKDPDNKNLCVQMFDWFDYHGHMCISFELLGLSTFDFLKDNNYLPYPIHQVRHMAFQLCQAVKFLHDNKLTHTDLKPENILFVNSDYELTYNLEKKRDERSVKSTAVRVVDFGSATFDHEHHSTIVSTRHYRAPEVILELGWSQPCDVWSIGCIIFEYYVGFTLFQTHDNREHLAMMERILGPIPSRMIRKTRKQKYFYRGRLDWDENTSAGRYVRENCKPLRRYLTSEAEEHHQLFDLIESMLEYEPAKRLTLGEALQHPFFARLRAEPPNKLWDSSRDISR
Aurora kinase B (Homo sapiens), sequence (Q96GD4 whole entry): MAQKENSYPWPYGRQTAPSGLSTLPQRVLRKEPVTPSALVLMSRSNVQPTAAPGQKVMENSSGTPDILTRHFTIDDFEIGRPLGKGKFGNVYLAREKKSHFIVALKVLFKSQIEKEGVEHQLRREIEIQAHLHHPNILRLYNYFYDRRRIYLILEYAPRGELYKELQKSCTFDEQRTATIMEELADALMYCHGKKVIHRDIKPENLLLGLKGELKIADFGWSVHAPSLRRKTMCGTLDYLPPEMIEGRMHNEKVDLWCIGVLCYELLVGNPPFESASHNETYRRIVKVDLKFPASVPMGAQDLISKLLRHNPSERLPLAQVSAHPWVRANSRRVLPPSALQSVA
Dual specificity protein kinase CLK1, sequence (P49759 whole entry): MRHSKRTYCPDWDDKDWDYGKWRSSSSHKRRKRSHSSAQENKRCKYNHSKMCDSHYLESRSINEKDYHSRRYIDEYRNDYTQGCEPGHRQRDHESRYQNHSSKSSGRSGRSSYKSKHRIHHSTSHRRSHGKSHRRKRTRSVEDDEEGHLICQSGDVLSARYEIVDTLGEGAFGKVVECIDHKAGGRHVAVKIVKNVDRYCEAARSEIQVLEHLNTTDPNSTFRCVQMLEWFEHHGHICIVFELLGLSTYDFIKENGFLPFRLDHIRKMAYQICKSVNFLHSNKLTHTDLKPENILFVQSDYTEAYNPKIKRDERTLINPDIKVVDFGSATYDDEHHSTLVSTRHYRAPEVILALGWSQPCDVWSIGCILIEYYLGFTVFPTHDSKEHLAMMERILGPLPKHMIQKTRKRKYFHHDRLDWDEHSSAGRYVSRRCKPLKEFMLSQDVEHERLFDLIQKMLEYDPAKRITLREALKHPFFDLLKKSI

In the case of `COc1cc2[nH]c(=O)c(C(=O)Nc3cc(C(=O)NCc4cccc(Cl)c4)ccc3C)cc2cc1CCCN1CCOCC1`, the EC50 (SW-620) is reported as 0.306 µM.

For `Brc1c(Br)c(Br)c2[nH]cnc2c1Br`, the IC50 [1] was 2.1 µM.

In the case of `N#Cc1ccc(-n2cnc3ccc(-c4ccncc4)cc32)cc1`, the inhibition [2] is reported as 60 to 100%.

For `COC(=O)c1ccc(-n2cnc3ccc(-c4ccncc4)cc32)cc1`, the inhibition [2] was 60 to 100%.

`CC[C@H](CO)Nc1nc(NCc2ccccc2)n2ncc(C(C)C)c2n1` gave an IC50 [3] of 1.3 µM.

With `CC(C)[C@H](CO)Nc1nc(Nc2cccc(Cl)c2)c2ncn(C(C)C)c2n1` [PURVALANOLA] the IC50 [4] was 0.3 µM.

`COc1cc(-c2cc(=O)c3c(O)cc(O)c(C/C=C(\C)CCC=C(C)C)c3o2)ccc1O` gave an IC50 [1] of 0.62 µM and an IC50 [5] of 6.4 µM.

`CN(C)c1nc2c(Br)c(Br)c(Br)c(Br)c2[nH]1` gave an IC50 [1] of 0.4 µM.

In the case of `O=C(O)c1ccc(-n2cnc3ccc(-c4ccncc4)cc32)cc1`, the inhibition [2] is reported as 60 to 100%.

`COc1ccc2c3ccnc(C)c3n(CC#N)c2c1` gave an inhibition [6] of 92% and an IC50 [7] of 0.081 µM.

For `CCOc1ccccc1CNc1nc(C)nc2[nH]cc(-c3ccnc(N)c3)c12`, the IC50 [8] was 0.01 µM.

Work on `c1cc(-c2ccc3ncn(-c4ccc5[nH]cnc5c4)c3c2)ccn1` yielded an inhibition [2] of 60 to 100%.

With `Cc1nccc2c1[nH]c1cc(O)ccc12` the IC50 [9] was 0.09 µM.

Work on `NC(=O)c1ccc(-n2cnc3ccc(-c4ccncc4)cc32)cc1` yielded an inhibition [2] of 60 to 100%.

For `COc1ccc2c(c1)[nH]c1c(C)nccc12`, the inhibition [6] was > 60%.

Work on `O=C(O[C@@H]1Cc2c(O)cc(O)cc2O[C@@H]1c1cc(O)c(O)c(O)c1)c1cc(O)c(O)c(O)c1` [EPIGALOCATECHIN GALLATE] yielded an IC50 [10] of 1 µM.

Work on `CS(=O)(=O)c1ccc(-n2cnc3ccc(-c4ccncc4)cc32)cc1` yielded an inhibition [2] of 60 to 100%.

For `COc1ccc2c3ccnc(Cl)c3n(CC#N)c2c1`, the inhibition [6] was 90% and the IC50 [11] was > 10 µM.

Compound `Cc1cc(=O)oc2cc3c([N+](=O)[O-])c(O)ccc3cc12` has an IC50 (Casein kinase 2) of 0.37 µM.

With `O=C1NC(Nc2ccccc2)=N/C1=C/c1ccc2c(c1)OCO2` the IC50 [12] was 0.06 to 0.07 µM and the IC50 [13] was 0.41 µM.

In the case of `N=C1NC(=O)/C(=C/c2ccc3c(c2)CCO3)S1`, the IC50 [14] is reported as 0.0241 µM.

In the case of `Cc1cc(=O)oc2cc3cc(O)ccc3cc12`, the IC50 (Casein kinase 2) is reported as 32.3 µM.

For `CN1C(=O)/C(=C\c2ccc3c(c2)OCO3)N=C1N`, the IC50 [15] was 0.49 µM, the IC50 [16] was 0.91 µM and the IC50 [17] was 0.1 µM.

Compound `COc1ccc(/C=C/C(=O)c2c(O)cc(OC)cc2OC)cc1` has an inhibition [18] of 84%, an inhibition [19] of 91% and an inhibition [20] of 90%.

`O=c1[nH]c(NCCO)nc2ccc3[nH]ncc3c12` showed an IC50 [21] of 0.61 µM.

`COc1ccc(-n2cnc3ccc(-c4ccncc4)cc32)cc1` showed an inhibition [2] of 60 to 100%.
